One data set is described as follows: water solubility. To be noted: weight to weight basis. Format: physicochemical.
The next data set concerns P. berghei. The data set is described as follows: antimalarial activity, standard in vivo test procedure against P. berghei in Swiss mice (ED50 on day 4 of treatment). To be noted: for ED50 Day 4 (mean values): effective dose which decreases the cell parasitemia by 50 percent on day 4 of treatment: Swiss mice infected i.p. with P. berghei, oral intubation in 0.2% methyl cellulose, 1, 4, 16 mg/kg/day × 4 days, 4 mice per group, 5760 min. Here is the method:
The antimalarial activity of 1-[1,3-dichloro-6-trifluoromethyl-9-phenanthryl]-3-di(n-butyl)aminopropanol quinate (Compound A) was established utilizing the following methodology. Test animals were infected by interperitoneal injection of 9×10^6 parasitized cells of P. berghei contained in 0.25 ml of 1:40 dilution in 0.9% aqueous sodium chloride with potassium citrate added of donor mouse blood which was infected with P. berghei one week earlier. Three days after injection, 3 groups of 4 mice (2 males and 2 females) were treated with Compound A at a dose level of 1, 4 and 16 mg/kg/day for 4 consecutive days. Similarly, a positive control of 3 groups of 4 mice (2 males and 2 females) were treated with halofantrine, as the hydrochloride salt, at a dose level of 1, 4 and 16 mg/kg/day for 4 consecutive days. The route of administration of Compound A and halofantrine was oral intubation of a suspension of each compound in 0.2% methyl cellulose at a constant volume of […]. A negative control group of 4 mice (2 males and 2 females) remained untreated. The results of the above test procedure expressed as an ED50 (the effective dose which decrease the cell parasitemia by 50 percent on day 4 of treatment) are shown below in Table I.

Data set [1] concerns multi-drug resistant Vietnam Smith strain of P. falciparum. The note with it: administered over a short period of time, minimum of two doses; cited from earlier work.
The conditions of data set [2]: in vivo; cited from earlier work.
Data set [3] relates to Chesson strain of P. vivax. The note with it: administered over a short period of time, minimum of two doses; cited from earlier work.
For data set [4], the system named is Cambodian Buchanan strain of P. falciparum. The note with it: administered over a short period of time, minimum of two doses; cited from earlier work.

We go through two compounds from patent US4818767A, “Quinate salts of antimalarial phenanthrenemethanol compounds” (SmithKline Beckman Corporation, priority 1983, dated 1989).

The solubility is the concentration that dissolves in the medium under given conditions. A high value points to a readily soluble substance.

Where a name gives a salt, the structure may show the parent alone.

With `CCCCN(CCCC)CCC(O)c1cc2c(Cl)cc(Cl)cc2c2cc(C(F)(F)F)ccc12` (centres unmarked) [Compound A, 1-[1,3-dichloro-6-trifluoromethyl-9-phenanthryl]-3-di(n-butyl)aminopropanol quinate], the solubility in “water solubility” is ≤ 200 mg/mL. Further, the “times more effective, on a weight by weight basis, than halofantrine hydrochloride (ED50 on day 4)” value in the data set with P. berghei (P. berghei malaria in mice, compared to halofantrine hydrochloride) is “at least 6 times”. Besides, the “ED50 Day 4 (mean values): effective dose which decreases the cell parasitemia by 50 percent on day 4 of treatment” value with P. berghei was ≤ 1 mg/kg.
In the case of `CCCCN(CCCC)CCC(O)c1cc2c(Cl)cc(Cl)cc2c2cc(C(F)(F)F)ccc12` (centres unmarked) [Halofantrine (HCl), 1-[1,3-dichloro-6-trifluoromethyl-9-phenanthryl]-3-di-(n-butyl)-aminopropanol hydrochloride], the “effectiveness against Vietnam Smith strain” value in data set [1] is “effective”. Besides, in data set [2], the systemic bioavailability entry is “problems with systemic bioavailability remained”. Further, in data set [3], the “effectiveness against Chesson strain of P. vivax” value is recorded as “effective”. For the same compound, the “ED50 Day 4 (mean values): effective dose which decreases the cell parasitemia by 50 percent on day 4 of treatment” value in the data set on P. berghei (hydrochloride) was found to be 6 mg/kg. Further, the “effectiveness against Cambodian Buchanan strain” value in data set [4] is “effective”.
